Measurements taken from patent publication US11207310B2 (PRILENIA NEUROTHERAPEUTICS LTD., priority 2016, dated 2021).
Like-named read-outs stand apart in the source and are kept apart here.

Columns and labels:
patients with HD [1] = conditions: for PBA Irritability, Severity×Frequency, change from baseline, Wk 52 Δ to placebo: BL TFC≥7
Procedure: The PBA-s is a brief semi-structured interview covering the most common behavioral and psychiatric manifestations of HD. […] Severity and frequency scores are multiplied to produce an overall ‘PBA score’ for each symptom.
The PBA-s is a brief semi-structured interview covering the most common behavioral and psychiatric manifestations of HD.
The total PBA score is calculated by the sum of all PBA-s scores across symptoms/domains.

patients with HD [2] = conditions: for Δ to placebo: Q-Motor Tap-Speed-Inter-Onset-interval-MN-Hand, change from baseline: week 52
Text: Motor deficits can be objectively assessed using different Q-Motor assessments. All Q-Motor assessments are based on the application of precalibrated and temperature controlled force transducers and 3-dimensional position sensors with very high sensitivity and test-retest reliability across sessions and sites in a multicenter clinical study. Q-Motor measures thus aim to reduce the limited sensitivity of categorical clinical rating scales, the intra- and inter-rater variability, and placebo effects observed in scales such as UHDRS-TMS. In addition, Q-Motor assessments allow for the objective monitoring of unintended motor side-effects in clinical studies. Thus, Q-Motor is an objective, reliable, and sensitive measure of motor function that is free of rater bias and limits placebo effect influence.
The patient placed their hand on a hand rest with their index finger positioned above a force-transducer. Recordings start after practice runs. The patient is instructed to finger tap as fast as possible between 2 auditory cues. The beginning of a tap is defined as a rise of the force by 0.05 N above maximal baseline level. The tap ends when it drops to 0.05 N before the maximal baseline level is reached again. The duration and variability of tap durations (TD), inter onset intervals (IOI), inter peak intervals (IPI), and inter tap intervals (ITI) are the exploratory outcome measures for speeded tapping. In addition, variability of peak tapping forces (TF) is calculated as coefficient of variation, and the tapping frequency (Freq), i.e., the number of taps between the onsets of the first and the last tap divided by the time in between, is determined. Five trials of 10 seconds duration are performed with each hand.

Compound: CCCN1CCC(c2cccc(S(C)(=O)=O)c2)CC1 [pridopidine, 4-[3-(methylsulfonyl)phenyl]-1-propyl-piperidine]
- PBA Disoriented Behavior, Severity×Frequency, change from baseline, Δ to placebo (patients with HD [1]; 67.5 mg bid, Week 26, Stage 1 BL TFC 11-13, p value 0.0615): −0.16
- Change from baseline PBA Irritability, Severity×Frequency, Δ to placebo (patients with HD [1]; 67.5 mg bid, Week 52, ALL): −0.63
- PBA Obsessive-Compulsive, Severity×Frequency, change from baseline, Δ to placebo (patients with HD [1]; 67.5 mg bid, Week 52, ALL, p value 0.5068): −0.28
- PBA Irritability, Severity×Frequency, change from baseline, Δ to placebo (patients with HD [1]; 67.5 mg bid, Week 52, BL TFC<7, p value 0.0429): −1.78
- PBA Irritability, Severity×Frequency, change from baseline, Wk 52 Δ to placebo (patients with HD [1]; 67.5 mg bid, Week 52, p value 0.466): −0.33
- PBA Obsessive-Compulsive, Severity×Frequency, change from baseline, Δ to placebo (patients with HD [1]; 67.5 mg bid, Week 52, Stage 1 BL TFC 11-13, p value 0.0011): −3.24
- PBA Irritability, Severity×Frequency, change from baseline, Δ to placebo (patients with HD [1]; 67.5 mg bid, Week 52, Stage 3-5 BL TFC 0-6, p value 0.0429): −1.78
- Change from baseline in PBA Depressed Mood, Severity×Frequency, Δ to placebo (patients with HD [1]; 90 mg bid, Week 26, ALL): −0.34
- PBA Disoriented Behavior, Severity×Frequency, change from baseline, Δ to placebo (patients with HD [1]; 90 mg bid, Week 26, ALL, p value 0.607): −0.09
- PBA Obsessive-Compulsive, Severity×Frequency, change from baseline, Δ to placebo (patients with HD [1]; 90 mg bid, Week 26, ALL, p value 0.7541): −0.12
- Change from baseline in PBA Depressed Mood, Severity×Frequency, Δ to placebo (patients with HD [1]; 90 mg bid, Week 26, Stage 1 BL TFC 11-13): −0.84
- PBA Obsessive-Compulsive, Severity×Frequency, change from baseline, Δ to placebo (patients with HD [1]; 90 mg bid, Week 26, Stage 1 BL TFC 11-13, p value 0.0251): −1.71
- PBA Disoriented Behavior, Severity×Frequency, change from baseline, Δ to placebo (patients with HD [1]; 90 mg bid, Week 26, Stage 1 BL TFC 11-13, p value 0.093): −0.16
- Change from baseline PBA Irritability, Severity×Frequency, Δ to placebo (patients with HD [1]; 90 mg bid, Week 52, ALL): −1.01
- PBA Obsessive-Compulsive, Severity×Frequency, change from baseline, Δ to placebo (patients with HD [1]; 90 mg bid, Week 52, ALL, p value 0.7508): −0.13
- PBA Irritability, Severity×Frequency, change from baseline, Δ to placebo (patients with HD [1]; 90 mg bid, Week 52, BL TFC<7, p value 0.0422): −1.79
- PBA Irritability, Severity×Frequency, change from baseline, Wk 52 Δ to placebo (patients with HD [1]; 90 mg bid, Week 52, p value 0.0311): −0.95
- PBA Obsessive-Compulsive, Severity×Frequency, change from baseline, Δ to placebo (patients with HD [1]; 90 mg bid, Week 52, Stage 1 BL TFC 11-13, p value 0.021): −2.47
- PBA Irritability, Severity×Frequency, change from baseline, Δ to placebo (patients with HD [1]; 90 mg bid, Week 52, Stage 3-5 BL TFC 0-6, p value 0.0422): −1.79
- Change from baseline in PBA Depressed Mood, Severity×Frequency, Δ to placebo (patients with HD [1]; 112.5 mg bid, Week 26, ALL): −0.52
- PBA Obsessive-Compulsive, Severity×Frequency, change from baseline, Δ to placebo (patients with HD [1]; 112.5 mg bid, Week 26, ALL, p value 0.1061): −0.63
- PBA Disoriented Behavior, Severity×Frequency, change from baseline, Δ to placebo (patients with HD [1]; 112.5 mg bid, Week 26, ALL, p value 0.6771): −0.08
- Change from baseline in PBA Depressed Mood, Severity×Frequency, Δ to placebo (patients with HD [1]; 112.5 mg bid, Week 26, Stage 1 BL TFC 11-13): −1.43
- PBA Obsessive-Compulsive, Severity×Frequency, change from baseline, Δ to placebo (patients with HD [1]; 112.5 mg bid, Week 26, Stage 1 BL TFC 11-13, p value 0.0114): −1.73
- PBA Disoriented Behavior, Severity×Frequency, change from baseline, Δ to placebo (patients with HD [1]; 112.5 mg bid, Week 26, Stage 1 BL TFC 11-13, p value 0.0357): −0.18
- Change from baseline PBA Irritability, Severity×Frequency, Δ to placebo (patients with HD [1]; 112.5 mg bid, Week 52, ALL): −0.84
- PBA Obsessive-Compulsive, Severity×Frequency, change from baseline, Δ to placebo (patients with HD [1]; 112.5 mg bid, Week 52, ALL, p value 0.7789): −0.12
- PBA Irritability, Severity×Frequency, change from baseline, Δ to placebo (patients with HD [1]; 112.5 mg bid, Week 52, BL TFC<7, p value 0.0542): −1.71
- PBA Irritability, Severity×Frequency, change from baseline, Wk 52 Δ to placebo (patients with HD [1]; 112.5 mg bid, Week 52, p value 0.1927): −0.6
- PBA Obsessive-Compulsive, Severity×Frequency, change from baseline, Δ to placebo (patients with HD [1]; 112.5 mg bid, Week 52, Stage 1 BL TFC 11-13, p value 0.005): −2.73
- PBA Irritability, Severity×Frequency, change from baseline, Δ to placebo (patients with HD [1]; 112.5 mg bid, Week 52, Stage 3-5 BL TFC 0-6, p value 0.0542): −1.71
- Δ to placebo: Q-Motor Tap-Speed-Inter-Onset-interval-MN-Hand, change from baseline (patients with HD [2]; 45 mg bid, FAS): -0.0402 s
- Δ to placebo: Q-Motor Tap-Speed-Inter-Onset-interval-MN-Hand, change from baseline (patients with HD [2]; 45 mg bid, HD1 and HD2 patients): -0.0351 s
- Δ to placebo: Q-Motor Tap-Speed-Inter-Onset-interval-MN-Hand, change from baseline (patients with HD [2]; 67.5 mg bid, FAS): 0.0152 s
- Δ to placebo: Q-Motor Tap-Speed-Inter-Onset-interval-MN-Hand, change from baseline (patients with HD [2]; 67.5 mg bid, HD1 and HD2 patients): -0.0464 s
- Δ to placebo: Q-Motor Tap-Speed-Inter-Onset-interval-MN-Hand, change from baseline (patients with HD [2]; 90 mg bid, FAS): -0.0064 s
- Δ to placebo: Q-Motor Tap-Speed-Inter-Onset-interval-MN-Hand, change from baseline (patients with HD [2]; 90 mg bid, HD1 and HD2 patients): -0.0291 s
- Q-Motor Tap-Speed-Frequency (patients with HD [2]; 90 mg bid, weeks 4, 12, 26 (FIG. 38)): consistent improvement from baseline
- Q-Motor Tap Speed Inter Onset Interval (IOI) (patients with HD [2]; 90 mg bid, weeks 4, 12, 26 (FIG. 39a)): consistent and significant improvement from baseline
- Δ to placebo: Q-Motor Tap-Speed-Inter-Onset-interval-MN-Hand, change from baseline (patients with HD [2]; 112.5 mg bid, FAS): -0.017 s
- Δ to placebo: Q-Motor Tap-Speed-Inter-Onset-interval-MN-Hand, change from baseline (patients with HD [2]; 112.5 mg bid, HD1 and HD2 patients): -0.022 s
